Source: ChEMBL document CHEMBL1201862, “PubChem BioAssay data set” (2004)
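The compound was tested at five concentrations on cells cultured in 96-well plates, with a 48-hour exposure period. Here, GI50 denotes the concentration required for 50% inhibition of growth.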 Activity calls are given as the source filed them. Cut-off read from the data, not from the text of the source: active = GI50 up to about 1.1 µM and inactive = higher.

Columns and labels:
Assay in all cases: NCI tumour cell line growth inhibition, 48 h
786-0 = test system: 786-0
A549 = test system: A549
ACHN = test system: ACHN
BT-549 = test system: BT-549
CAKI-1 = test system: CAKI-1
CCRF-CEM = test system: CCRF-CEM
COLO 205 = test system: COLO 205
DU-145 = test system: DU-145
EKVX = test system: EKVX
HCC 2998 = test system: HCC 2998
HCT-116 = test system: HCT-116
HCT-15 = test system: HCT-15
HL-60 = test system: HL-60
HOP-62 = test system: HOP-62
HOP-92 = test system: HOP-92
HT-29 = test system: HT-29
Hs-578T = test system: Hs-578T
IGROV-1 = test system: IGROV-1
K562 = test system: K562
KM12 = test system: KM12
LOX IMVI = test system: LOX IMVI
M14 = test system: M14
MCF7 = test system: MCF7
MDA-MB-231 = test system: MDA-MB-231
MDA-MB-435 = test system: MDA-MB-435
MDA-N = test system: MDA-N
MOLT-4 = test system: MOLT-4
Malme-3M = test system: Malme-3M
NCI-H23 = test system: NCI-H23
NCI-H460 = test system: NCI-H460
NCI-H522 = test system: NCI-H522
NCI/ADR-RES = test system: NCI/ADR-RES
OVCAR-3 = test system: OVCAR-3
OVCAR-4 = test system: OVCAR-4
OVCAR-5 = test system: OVCAR-5
OVCAR-8 = test system: OVCAR-8
PC-3 = test system: PC-3
RPMI-8226 = test system: RPMI-8226
RXF 393 = test system: RXF 393
SF-268 = test system: SF-268
SF-295 = test system: SF-295
SF-539 = test system: SF-539
SK-MEL-28 = test system: SK-MEL-28
SK-MEL-2 = test system: SK-MEL-2
SK-MEL-5 = test system: SK-MEL-5
SK-OV-3 = test system: SK-OV-3
SN12C = test system: SN12C
SNB-19 = test system: SNB-19
SNB-75 = test system: SNB-75
SR = test system: SR
SW-620 = test system: SW-620
T47D = test system: T47D
TK-10 = test system: TK-10
U-251 = test system: U-251
UACC-257 = test system: UACC-257
UACC-62 = test system: UACC-62
UO-31 = test system: UO-31

Structure (SMILES): Fc1cccc(F)c1C1SCc2nc3cc(Cl)c(Cl)cc3n21 (stereo unspecified)
- GI50 (786-0): > 73.5 µM (inactive)
- GI50 (A549): > 100 µM (inactive)
- GI50 (ACHN): > 100 µM (inactive)
- GI50 (BT-549): > 100 µM (inactive)
- GI50 (CAKI-1): > 100 µM (inactive)
- GI50 (CCRF-CEM): > 100 µM (inactive)
- GI50 (COLO 205): > 100 µM (inactive)
- GI50 (DU-145): > 100 µM (inactive)
- GI50 (EKVX): > 100 µM (inactive)
- GI50 (HCC 2998): > 100 µM (inactive)
- GI50 (HCT-116): > 100 µM (inactive)
- GI50 (HCT-15): > 100 µM
- GI50 (HL-60): > 100 µM (inactive)
- GI50 (HOP-62): > 100 µM (inactive)
- GI50 (HOP-92): 42.4 µM (inactive)
- GI50 (HT-29): > 100 µM (inactive)
- GI50 (Hs-578T): > 100 µM (inactive)
- GI50 (IGROV-1): > 100 µM (inactive)
- GI50 (K562): > 100 µM (inactive)
- GI50 (KM12): > 100 µM (inactive)
- GI50 (LOX IMVI): > 100 µM (inactive)
- GI50 (M14): > 100 µM (inactive)
- GI50 (MCF7): > 100 µM (inactive)
- GI50 (MDA-MB-231): > 100 µM (inactive)
- GI50 (MDA-MB-435): > 100 µM (inactive)
- GI50 (MDA-N): > 100 µM (inactive)
- GI50 (MOLT-4): > 100 µM (inactive)
- GI50 (Malme-3M): > 100 µM (inactive)
- GI50 (NCI-H23): > 100 µM (inactive)
- GI50 (NCI-H460): > 100 µM (inactive)
- GI50 (NCI-H522): > 100 µM (inactive)
- GI50 (NCI/ADR-RES): > 100 µM (inactive)
- GI50 (OVCAR-3): > 100 µM (inactive)
- GI50 (OVCAR-4): > 100 µM (inactive)
- GI50 (OVCAR-5): > 100 µM (inactive)
- GI50 (OVCAR-8): > 100 µM (inactive)
- GI50 (PC-3): > 100 µM (inactive)
- GI50 (RPMI-8226): > 100 µM (inactive)
- GI50 (RXF 393): > 100 µM (inactive)
- GI50 (SF-268): > 100 µM (inactive)
- GI50 (SF-295): > 100 µM (inactive)
- GI50 (SF-539): > 100 µM (inactive)
- GI50 (SK-MEL-28): > 100 µM (inactive)
- GI50 (SK-MEL-2): > 100 µM (inactive)
- GI50 (SK-MEL-5): > 100 µM (inactive)
- GI50 (SK-OV-3): > 100 µM (inactive)
- GI50 (SN12C): > 100 µM (inactive)
- GI50 (SNB-19): > 100 µM (inactive)
- GI50 (SNB-75): 95.7 µM (inactive)
- GI50 (SR): > 100 µM (inactive)
- GI50 (SW-620): > 100 µM (inactive)
- GI50 (T47D): > 100 µM (inactive)
- GI50 (TK-10): > 100 µM (inactive)
- GI50 (U-251): > 100 µM (inactive)
- GI50 (UACC-257): > 100 µM (inactive)
- GI50 (UACC-62): > 100 µM (inactive)
- GI50 (UO-31): > 100 µM (inactive)

Structure (SMILES): Cc1c(O)c(=O)ccn1CCc1c[nH]c2ccccc12
- GI50 (786-0): 2.55 µM (inactive)
- GI50 (A549): 9.35 µM (inactive)
- GI50 (ACHN): 3.08 µM (inactive)
- GI50 (BT-549): 20.7 µM (inactive)
- GI50 (CAKI-1): 1.21 µM (inactive)
- GI50 (COLO 205): 12.6 µM (inactive)
- GI50 (DU-145): 6.44 µM (inactive)
- GI50 (EKVX): 6.31 µM (inactive)
- GI50 (HCT-116): 6.61 µM (inactive)
- GI50 (HCT-15): 0.397 µM
- GI50 (HL-60): 19.4 µM (inactive)
- GI50 (HOP-62): 8.75 µM (inactive)
- GI50 (HOP-92): 0.483 µM (active)
- GI50 (HT-29): 3.75 µM (inactive)
- GI50 (Hs-578T): 11.7 µM (inactive)
- GI50 (K562): 14.4 µM (inactive)
- GI50 (KM12): 22 µM (inactive)
- GI50 (LOX IMVI): 0.0335 µM (active)
- GI50 (M14): 7.48 µM (inactive)
- GI50 (MCF7): 4.89 µM (inactive)
- GI50 (MDA-MB-231): 0.718 µM (active)
- GI50 (MDA-MB-435): 17.2 µM (inactive)
- GI50 (MDA-N): 23 µM (inactive)
- GI50 (MOLT-4): 8.2 µM (inactive)
- GI50 (Malme-3M): 18.2 µM (inactive)
- GI50 (NCI-H23): 20.5 µM (inactive)
- GI50 (NCI-H460): 4.11 µM (inactive)
- GI50 (NCI/ADR-RES): 3.1 µM (inactive)
- GI50 (OVCAR-5): 14.6 µM (inactive)
- GI50 (OVCAR-8): 8.39 µM (inactive)
- GI50 (PC-3): 28.4 µM (inactive)
- GI50 (RPMI-8226): 3.69 µM (inactive)
- GI50 (SF-268): 2.44 µM (inactive)
- GI50 (SF-295): 3.93 µM (inactive)
- GI50 (SF-539): 19.7 µM (inactive)
- GI50 (SK-MEL-5): 6.52 µM (inactive)
- GI50 (SK-OV-3): 12.5 µM (inactive)
- GI50 (SNB-19): 6.81 µM (inactive)
- GI50 (SR): 5.73 µM (inactive)
- GI50 (SW-620): 7.23 µM (inactive)
- GI50 (T47D): 22.3 µM (inactive)
- GI50 (TK-10): 4.81 µM (inactive)
- GI50 (U-251): 6.55 µM (inactive)
- GI50 (UACC-257): 3.92 µM (inactive)
